Results from US7217794B2, “Compounds and methods for treatment of thrombosis” (Daiamed, Inc., priority 2003, dated 2007).
Like-named read-outs stand apart in the source and are kept apart here.

Experiments:
native Factor XIa = biological target: T1, native Factor XIa (Homo sapiens, UniProt P03951); experiment: Factor XIa enzyme inhibition assay (fluorogenic substrate pyroGlu-Pro-Arg-AMC); type: biochemical
T1 construct: cleavage generates the same light chain segment as is found for human Factor XIa protein; purchased Haematological Associates FXIA01
Method: Potential inhibitors of Factor XIa were evaluated using a modification of the above assay. […] This substrate had the p-nitroanaline group replaced with 7-methylaminocoumarin (AMC). […] Inhibitors were tested by serial dilution over an appropriate range to yield a dose response curve for determination of the inhibitors' IC50 values. The assay mixture was incubated for 30 minutes at 30° C., and the fluorescent yield was measured using a PE-Wallac Victor 2 Plate Reader. Dose response curves were fit to Equation 1 in which A is the maximum inhibition, B is the minimum inhibition, C is the IC50, and D is the Hill coefficient.
Potential inhibitors of Factor XIa were evaluated using the following assay. […] This substrate had the p-nitroanaline group replaced with 7-methylaminocoumarin (AMC).
Inhibitors were tested by serial dilution over an appropriate range to yield a dose response curve for determination of the inhibitors' IC50 value. The assay mixture was incubated for 30 minutes at 30° C., and the fluorescent yield measured using a PE-Wallac VICTOR2™ Plate Reader. Dose response curves were fit to equation 1 below in which A is the maximum inhibition, B is the minimum inhibition, C is the IC50, and D is the Hill coefficient.

thrombin = thrombin (Homo sapiens, UniProt P00734); experiment: Thrombin enzyme inhibition assay (purified enzyme); type: biochemical
Factor Xa = Factor Xa (Homo sapiens, UniProt P00742); experiment: Factor Xa enzyme inhibition assay (purified enzyme); type: biochemical
rat Factor XIa = experiment: Inhibition of rat Factor XIa compared with native human Factor XIa; type: biochemical; conditions: rat Factor XIa vs native human Factor XIa
venous thrombosis = experiment: Rat venous thrombosis model (stenosis of inferior vena cava with hypotonic saline infusion); type: in vivo
Method: Compound 22 was administered as a continuous intravenous infusion via the femoral vein commenced 15 minutes prior to the thrombotic challenge. Thrombus mass was assessed at 60 minutes following challenge. Results are expressed as the percentage of the vehicle mean.
Briefly, male Sprague-Dawley rats (300–400 g) were anesthetized using ketamine/xylazine I.M. A midline laparotomy was performed, and the vena cava was visualized and gently separated from the descending aorta using cotton swabs. Both iliolumbar veins were ligated with suture (3–0 silk). A loose ligature (3–0 silk) was placed around the vena cava distal to the renal veins. A 25G butterfly bent at a 90-degree angle and attached to a 5 cc syringe filled with 2.5 mL of hypotonic saline (0.225%) was inserted into the vena cava at the level of the iliolumbar veins and glued into place using VETBOND™. A 26G needle bent to a 90-degree angle was then tied tightly to the vena cava, using the loose ligature. An atraumatic clamp was placed on the vena cava proximal to the iliac bifurcation, and the hypotonic saline manually infused at a rate of 10 mL/minutes. The atraumatic clamp was removed, along with the 26G needle, creating a 26G stenosis. Organs were carefully replaced, and animals were kept normothermic until sacrifice. Animals were sacrificed by anesthetic overdose at 10 or 60 minutes post thrombus induction. Following sacrifice, the vena cava was isolated using hemostats, and the clot(s) was dissected out. Clots were removed, blotted on gauze, and then immediately weighed using an analytical balance.
Compounds under investigation along with vehicles and positive controls (heparin, enoxaparin) were administered intravenously via a catheter (PE-50 tubing) implanted in the jugular or femoral vein. In some studies, rats were administered a bolus of the test article (4 mL/kg) via the venous catheter immediately prior to initiation of intravenous infusion (4 mL/kg/h). The rats were subjected to the challenge 15 minutes post bolus/infusion initiation. All test article infusions continued to the end of the study period.
Administration of compound XLXI commenced 15 minutes prior to thrombotic challenge, with determination of thrombus mass at 60 minutes post challenge.

[1] = Table 12, compounds of formula I (R^0 is 2-thiazole), read-out: FXIa IC50
[2] = Table 12, read-out: Thrombin IC50

Factor Xa, sequence (P00742 235-488 limits assumed): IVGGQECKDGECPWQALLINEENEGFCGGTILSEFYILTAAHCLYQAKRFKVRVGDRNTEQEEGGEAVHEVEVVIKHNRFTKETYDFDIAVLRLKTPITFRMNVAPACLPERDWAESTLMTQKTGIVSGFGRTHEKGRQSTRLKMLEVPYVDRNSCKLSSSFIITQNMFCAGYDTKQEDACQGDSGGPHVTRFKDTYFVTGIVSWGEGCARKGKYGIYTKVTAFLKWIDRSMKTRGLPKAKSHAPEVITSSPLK
Factor Xa, sequence (P00742 41-179 partner limits assumed): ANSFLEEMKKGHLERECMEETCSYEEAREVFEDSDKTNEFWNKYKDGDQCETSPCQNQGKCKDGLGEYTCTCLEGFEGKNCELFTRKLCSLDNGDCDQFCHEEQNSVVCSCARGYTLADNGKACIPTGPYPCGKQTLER
T1 sequence (P03951 388-625 limits assumed): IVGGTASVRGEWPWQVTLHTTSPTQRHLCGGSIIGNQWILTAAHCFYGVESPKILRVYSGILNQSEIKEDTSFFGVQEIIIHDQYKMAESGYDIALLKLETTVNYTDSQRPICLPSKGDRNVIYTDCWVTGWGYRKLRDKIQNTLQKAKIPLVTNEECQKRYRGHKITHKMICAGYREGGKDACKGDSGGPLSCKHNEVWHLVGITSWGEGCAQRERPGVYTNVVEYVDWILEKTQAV
T1 sequence (P03951 19-387 partner limits assumed): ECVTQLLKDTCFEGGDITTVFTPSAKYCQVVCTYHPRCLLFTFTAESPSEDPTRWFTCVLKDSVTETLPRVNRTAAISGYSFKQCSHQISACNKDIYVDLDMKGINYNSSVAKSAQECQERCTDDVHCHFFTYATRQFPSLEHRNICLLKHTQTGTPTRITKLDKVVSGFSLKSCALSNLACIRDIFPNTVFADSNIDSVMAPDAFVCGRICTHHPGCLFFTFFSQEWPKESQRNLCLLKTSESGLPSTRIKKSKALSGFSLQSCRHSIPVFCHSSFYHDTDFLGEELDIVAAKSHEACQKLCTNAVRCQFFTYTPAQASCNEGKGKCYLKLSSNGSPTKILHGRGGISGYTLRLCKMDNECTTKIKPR

Row | SMILES | IC50 (native Factor XIa; [1]) | IC50 (thrombin; [2]) | IC50 (Factor Xa; Table 12, read-out: FXa IC50) | IC50 (native Factor XIa) | other results
1 | CC(C)C(NC(=O)C(O)c1cccc(Cl)c1)C(=O)NC(CCCNC(=N)N)C(=O)c1nccs1 (stereo not shown) | 116 nM | 225 nM | 2360 nM | – | –
2 | CC(C)CC(NC(=O)NCc1ccc(Cl)c(Cl)c1)C(=O)NC(C(=O)NC(CCCNC(=N)N)C(=O)c1nccs1)C(C)C (stereo not shown) | – | 615 nM | 20000 nM | 64 nM | –
3 | CCC(C)C(NC(=O)C(CC(C)C)NC(=O)NCc1ccc(Cl)c(Cl)c1)C(=O)NC(CCCNC(=N)N)C(=O)c1nccs1 (stereo not shown) | – | – | – | 78 nM | IC50 (thrombin): 2650 nM; IC50 (Factor Xa): 84900 nM
4 | CC(C)[C@H](NC(=O)[C@H](Cc1cccnc1)NC(=O)N[C@H](C)c1ccc(Br)cc1)C(=O)N[C@@H](CCCNC(=N)N)C(=O)c1nccs1 [Compound 22] | – | – | – | – | specificity for rat Factor XIa relative to native human Factor XIa (fold less) (rat Factor XIa): 11 fold; effect on thrombus formation (venous thrombosis; continuous intravenous administration begun 15 minutes before thrombotic challenge, thrombus mass at 60 minutes post challenge): suppressed the thrombus formation; total dose exposure at which efficacy was observed (venous thrombosis; continuous intravenous infusion, thrombus mass at 60 minutes post challenge): 1.4 mg/kg; efficacy in rat model of venous thrombosis (venous thrombosis; intravenous): statistically significant efficacy; change in thrombus size at the higher dose (venous thrombosis; total dose exposure 4.0 mg/kg compared with 1.4 mg/kg): no further decrease in thrombus size
5 | COC(=O)c1cccc(CS(=O)(=O)NC(C(=O)NC(CC(C)C)C(=O)NC(CCCNC(=N)N)C(=O)c2nccs2)C2CCCCC2)c1 (stereo not shown) | 5 nM | 20 nM | 31 nM | – | –
6 | CC(C)C(NC(=O)C(O)c1ccccc1)C(=O)NC(CCCNC(=N)N)C(=O)c1nccs1 (stereo not shown) | – | 253 nM | 1190 nM | – | –
